One series deals with PvNMT (Plasmodium vivax, UniProt A5K1A2). As to the kind of experiment: NMT activity assay (CPM detection of free CoA), PvNMT. Conditions: for SI: enzyme selectivity, HsNMT IC50/PvNMT IC50.
In the next series the target is T1, HsNMT1 (Homo sapiens, UniProt P30419).
T1 sequence (P30419 1-496): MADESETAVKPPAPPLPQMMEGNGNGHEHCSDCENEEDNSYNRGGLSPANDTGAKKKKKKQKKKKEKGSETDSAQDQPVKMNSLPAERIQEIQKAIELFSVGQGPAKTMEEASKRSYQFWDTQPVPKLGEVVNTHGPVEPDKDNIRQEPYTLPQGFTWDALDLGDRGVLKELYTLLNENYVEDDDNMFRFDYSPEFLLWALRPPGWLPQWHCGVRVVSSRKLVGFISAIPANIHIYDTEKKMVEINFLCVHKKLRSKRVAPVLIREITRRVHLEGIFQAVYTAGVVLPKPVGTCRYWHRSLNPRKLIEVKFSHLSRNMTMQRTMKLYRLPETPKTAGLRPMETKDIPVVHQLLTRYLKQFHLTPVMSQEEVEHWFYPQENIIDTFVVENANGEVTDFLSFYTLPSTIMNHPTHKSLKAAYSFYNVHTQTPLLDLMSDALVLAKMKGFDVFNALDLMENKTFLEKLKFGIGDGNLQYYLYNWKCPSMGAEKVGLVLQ
As to the kind of experiment: NMT activity assay (CPM detection of free CoA), HsNMT.

The next series concerns P. vivax schizonts. As to the kind of experiment: P. vivax liver stage assay, schizonts. The series is classed as cell-based, Plasmodium vivax. Conditions: 20 µM; for Number of liverstage Schizonts per well: 8 dpi, listed as Pi4K. On the procedure:
We next evaluated the candidate compounds against liver-stage P. vivax (Fig. 5). P. vivax sporozoites were obtained from three independent patient isolates and cultured in primary human hepatocytes from a single donor lot using a 384-well microculture system as described previously. Cells were infected and treated with NMTis at 20 µM beginning day 5 post-infection until day 8 when the infection rates were quantified by fluorescent microscopy.
Accordingly, we applied dose–response curves of all the tested NMTs on parasite isolates 2 and 3 over concentrations up to 20 µM (Fig. 5c, d, Source Data file). We observed similar kinetics for all inhibitors, with a gradual decrease in parasite load upon increasing the drug concentration. […] Nuclei were counted in each well using DAPI staining as a measure of toxicity (Supplementary Fig. 86, Supplementary Source data). We used the phosphatidylinositol 4-kinase inhibitor (PI4Ki), MMV390048, as a positive control for eliminating schizonts[37],[38].
Plasmodium vivax liver stage assays were performed as described previously. Cryopreserved primary human hepatocytes (Cat No. F00995-P) and hepatocyte culture medium (HCM) (InVitroGroTM CP Medium) were obtained from Bioreclamation IVT, Inc., (Baltimore, MD, USA). Briefly, we seeded 384-well plates with primary hepatocytes from a single donor lot at a density of 25,000 cells per well. We then infected the hepatocytes with 14,000 freshly hand-dissected sporozoites per well. Cells were exposed to the compounds at indicated concentrations from day 5 post-infection. We used Pi4K inhibitor MMV390048, at 20 µM, as a positive control to eliminate P. vivax liver schizonts. We then proceeded to feed cultures every day, replacing the compounds until day 8 post-infection. Cells were fixed with 4% PFA, permeabilized with 1% Triton X-100, blocked with 2% BSA, and stained with DAPI and PvUIS4 antibodies to detect schizonts and hypnozoites forms by confocal microscopy. For antibody dilutions, PvUIS4 (kind gift from Dr. Noah Sather, Seattle Children’s Research Institute) was diluted 1:250 and the secondary antibody was anti-mouse AlexaFluor-594 (Cat # A-11005; RRID: AB_2534073) diluted 1:1000. DAPI was diluted 1:2000. The images were processed, analyzed and outlier cells were removed using IMARIS (Bitplane Inc.) image analysis software.

The subject of another series is HepG2 cells. As to the kind of experiment: HepG2 cytotoxicity assay (Live/Dead staining). Conditions: for Percentage of live HepG2 cells compared with diluent controls: replicates. How it is done: Therefore, we assessed cytotoxicity in the human hepatoma HepG2 cell line. We required a PvNMT to HsNMT SI > 20 for further screening. HepG2 cells were exposed to the compounds at concentrations ranging from 1 to 20 µM for […], and toxicity was assessed via live-dead staining.
The viability of the HepG2 cell line following exposure to the compounds was determined by a Live/Dead cell assay kit (Invitrogen). Briefly, cells were added to a 96-well plate at a concentration of 5000 cells per well, excluding the exterior wells. Cells were exposed to the compounds at different concentrations ranging from 1 to 20 µM. Cells were washed every 24 h and supplemented with fresh doses of compounds. At 72 h post-treatment, 1 µM calcein-AM and 1 µM ethidium homodimer were added to the wells and incubated for 10 min at 37 °C. After washing with PBS, the cells were visualized with fluorescent microscopy (Keyence BZ-X700).

Setting [1] is: PvNMT IC50, mean of two or more determinations.
Setting [2] is: read-out: PvNMT IC50, mean of two or more determinations.
Setting [3] is: read-out: HsNMT IC50, mean of two or more determinations.

The values below come from publication PMC10480161, “Identification of potent and selective N-myristoyltransferase inhibitors of Plasmodium vivax liver stage hypnozoites and schizonts” (Nature Communications, 2023).

Where “and” joins values, the source holds several entries; their conditions need not be identical. Equal values may be shown once. Read-outs that look alike come from different tables or passages of the source.

PvNMT, sequence (A5K1A2 entry or part of it): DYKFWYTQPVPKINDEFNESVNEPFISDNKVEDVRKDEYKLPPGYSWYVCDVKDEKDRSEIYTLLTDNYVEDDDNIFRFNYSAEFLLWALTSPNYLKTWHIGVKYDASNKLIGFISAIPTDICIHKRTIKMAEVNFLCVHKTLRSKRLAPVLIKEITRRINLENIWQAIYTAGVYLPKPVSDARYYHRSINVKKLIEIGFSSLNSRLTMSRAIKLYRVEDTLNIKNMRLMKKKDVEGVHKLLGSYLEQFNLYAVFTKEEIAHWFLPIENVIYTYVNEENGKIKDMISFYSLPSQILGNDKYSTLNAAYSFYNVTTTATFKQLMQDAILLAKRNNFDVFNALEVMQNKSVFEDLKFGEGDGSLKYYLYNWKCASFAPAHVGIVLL

For orientation: IC50 means the concentration at which inhibition is half-maximal. As for `Cc1nn(C)c(C)c1CCOc1ccccc1-c1ccnc(N2CCNCC2)c1` [Compound 12c], the IC50 at PvNMT (setting [1]) is 0.00948 µM; against HsNMT1, 0.599 µM. Further, the SI at PvNMT stood at 63.1.

Molecule `c1cncc(CCOc2cccnc2-c2ccnc(N3CCNCC3)c2)c1` [Compound 12h] gave an IC50 against PvNMT (setting [1]) of 0.441 µM. Still for that read-out and setting: the value for `c1cncc(CCOc2ccccc2-c2cccc(N3CCNCC3)c2)c1` [Compound 12i] was 1.54 µM.

Molecule `Fc1ccc(-c2cccc(N3CCNCC3)c2)c(OCCc2cccnc2)c1` [Compound 12k] showed a half-maximal inhibitory concentration (IC50) at PvNMT (setting [1]) of 3.12 µM.

Molecule `Cc1n[nH]c(C)c1CCOc1cccnc1-c1cccc(N2CCNCC2)c1` [Compound 12m] showed an IC50 against PvNMT (setting [1]) of 12.5 µM. For `Cc1n[nH]c(C)c1CCOc1ccccc1-c1ccnc(N2CCNCC2)c1` [Compound 12n], the IC50 worked out at 0.604 µM against PvNMT (setting [1]) and 39.7 µM on HsNMT1. Besides, the SI on PvNMT is given as 65.7. As to `Cc1n[nH]c(C)c1CCOc1cccnc1-c1ccnc(N2CCNCC2)c1` [Compound 12o], on PvNMT (setting [2]), the IC50 worked out at 3.12 µM. Regarding `Cc1n[nH]c(C)c1CCOc1cc(F)ccc1-c1cccc(N2CCNCC2)c1` [Compound 12p], the values for the 50% inhibitory concentration (IC50) at PvNMT (setting [1]) and against HsNMT1 were 0.368 µM and 23.1 µM, respectively. This molecule yielded an SI on PvNMT of 62.7. Molecule `Cc1nn(C)c(C)c1CCOc1ccccc1-c1cc(N2CCNCC2)ncn1` [Compound 16a] yielded a concentration for half-maximal inhibition (IC50) against PvNMT (setting [1]) of 9.39 µM.

As to `Cc1nn(C)c(C)c1CCOc1cc(F)ccc1-c1cc(N2CCNCC2)ncn1` [Compound 16b], the SI on PvNMT was 164 and 164.4. Also, the results for the IC50 on PvNMT (setting [2]) and on HsNMT1 (setting [3]) were 0.168 µM and 27.6 µM, respectively. In turn, `Fc1ccc(-c2cc(N3CCNCC3)ncn2)c(OCCc2cccnc2)c1` [Compound 16d] showed an IC50 against PvNMT (setting [1]) of 3.39 µM. Turning to `Cc1n[nH]c(C)c1CCOc1cc(F)ccc1-c1cc(N2CCNCC2)ncn1` [Compound 16e], the 50% inhibitory concentration (IC50) on PvNMT (setting [2]) stood at 5.07 µM. `Cc1n[nH]c(C)c1CCOc1ccccc1-c1cc(N2CCNCC2)ncn1` [Compound 16f]: the IC50 at PvNMT (setting [1]) is 14 µM.

`Cc1nn(C)c(C)c1CCOc1cccnc1-c1cccc(OCCN(C)C)c1` [Compound 26a] had an IC50 against PvNMT (setting [1]) of 0.266 µM. Still for that read-out and setting: the value for `CN(C)CCOc1cccc(-c2ncccc2OCCc2cccnc2)c1` [Compound 26d] was 14.8 µM; that for `CN(C)CCOc1cccc(-c2ccccc2OCCc2cccnc2)c1` [Compound 26e] was 12.8 µM. As to `CN(C)CCOc1cccc(-c2ccc(F)cc2OCCc2cccnc2)c1` [Compound 26f], the IC50 on PvNMT (setting [2]) was 0.622 µM; at HsNMT1 (setting [3]), more than 40 µM. Turning to `Cc1n[nH]c(C)c1CCOc1cccnc1-c1cccc(OCCN(C)C)c1` [Compound 26g], inhibition against PvNMT (setting [1]) was half-maximal at 19.4 µM (IC50). Same read-out and setting: the value for `Cc1n[nH]c(C)c1CCOc1ccccc1-c1cccc(OCCN(C)C)c1` [Compound 26h] was 1.56 µM. Still for that read-out and setting: the value for `Cc1nn(C)c(C)c1CCOc1ccc2ccccc2c1-c1cccc(OCCN(C)C)c1` [Compound 30b] was 19.8 µM; that for `CN(C)CCOc1cccc(-c2c(OCCc3cccnc3)ccc3ccccc23)c1` [Compound 30d] was 7.21 µM; that for `Cc1n[nH]c(C)c1CCOc1ccc2ccccc2c1-c1ccnc(N2CCNCC2)c1` [Compound 30e] was 2.88 µM.

At PvNMT (setting [1]), `Cc1n[nH]c(C)c1CCOc1ccc2ccccc2c1-c1cccc(OCCN(C)C)c1` [Compound 30f] showed an IC50 of 25.4 µM. For `CS(=O)(=O)c1ccc(-c2cnc(N)c(-c3ccc(C(F)(F)F)nc3)c2)cc1` [MMV390048, reference compound], the “Number of liverstage Schizonts per well” value in the series with P. vivax schizonts (isolate 2, technical replicates (Fig. 5b)) was 0 per well and 1 per well (2×); in the series on P. vivax schizonts (isolate 3, technical replicates (Fig. 5b)), 2 per well and 1 per well. The “number of schizonts per well (in words)” value with P. vivax schizonts (positive control) is “dramatically reduced the number of schizonts per well”. Regarding `CN[C@@H]1C[C@H]2O[C@@](C)([C@@H]1OC)n1c3ccccc3c3c4c(c5c6ccccc6n2c5c31)C(=O)NC4` [staurosporine, Staurosporine, reference compound], the “Percentage of live HepG2 cells compared with diluent controls” value in the series with HepG2 cells (1 μM) was 95.8547% and 101.587%; in the series with HepG2 cells (2.5 μM), 98.2188% and 92.7655%; in the series on HepG2 cells (5 μM), 90.1576% and 84.8522%; with HepG2 cells (10 μM), 76.1985% and 71.2598%; in the series on HepG2 cells (20 μM), 50.831% and 59.1843%. Also, the “HepG2 cell viability (in words)” value in the series with HepG2 cells (at 10–20 µM, positive control) was “reduced the cell viability”.
